What all share (assay): inhibition of tumour cell growth, NCI panel, 48 h
The test system of assay [1] is HCC-2998 colon.
In assay [2] the test system is OVCAR-5 ovarian.
Assay [3] relates to HL-60(TB) leukemia.
Assay [4] relates to ACHN renal.
Assay [5] concerns NCI-H460 lung.
For assay [6], the system named is SK-MEL-2 melanoma.
Assay [7] relates to HCT-15 colon.
Assay [8] relates to KM12 colon.
In assay [9] the test system is OVCAR-8 ovarian.
Assay [10] relates to UACC-257 melanoma.

Molecules are shown by their SMILES.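 Grown in 96-well plates, cells were treated for 48 hours with each compound at five concentrations. Insufficient inhibition: endpoint recorded as highest concentration tested. GI50: concentration for 50% inhibition of growth. TGI marks complete inhibition of growth.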

Turning to `CN(CCC#N)c1ccc(/C=C(\C#N)c2cccc(C(F)(F)F)c2)cc1`, the GI50 in [1] was 5.08 µM; in assay [2], 6.73 µM; in [3] it was 3 µM; in assay [4], 4.13 µM; in assay [5] it was 3.76 µM; in assay [6], 2.57 µM. In addition, the figures for the GI50 in [7], in assay [8] and in assay [9] were 3.14 µM, 2.97 µM and 3.99 µM, respectively. Besides, the TGI in assay [1] is more than 100 µM; in [2] it was more than 100 µM; in assay [3] it was more than 100 µM; in assay [4], more than 100 µM; in assay [5] it was more than 100 µM; in assay [6], 8.11 µM. Besides, the TGI in [7], in assay [8] and in assay [9] was more than 100 µM in each case.

Turning to `O=C(O)C1CCc2nnc(-c3ccccc3)n21` (centres undefined), the TGI in assay [1], in assay [3], in [4], in assay [5], in assay [6] and in assay [10] was more than 100 µM in each case. Further, the TGI in [7], in assay [8] and in assay [9] was more than 100 µM in each case.

Regarding `CCN(CC)C(=O)CC1=C(C)/C(=C/c2[nH]c(-c3ccc[nH]3)cc2OC)N=C1C`, the GI50 in assay [2] was 5.19 µM; in [3] it was 1.82 µM; in assay [4] it was 0.374 µM; in assay [5], 0.366 µM; in assay [6], 0.275 µM; in assay [10], 1.03 µM. Also, the values for the GI50 in assay [7], in assay [8] and in assay [9] were 0.278 µM, 0.374 µM and 0.455 µM, respectively. For the same compound, the TGI in assay [2] is 60.9 µM; in assay [3], 61.9 µM; in assay [4] it was 1.97 µM; in [5] it was 14.2 µM; in assay [6] it was 0.799 µM; in assay [10], 4.85 µM. The TGI in assay [7] was 0.891 µM; in assay [8] it was 59.2 µM; in assay [9], 22.5 µM.

In the case of `O=[N+]([O-])c1cc([N+](=O)[O-])c(Cl)c(Cl)c1Cl`, the GI50 in assay [1] was 2.84 µM; in [3], 2.07 µM; in [4], 1.04 µM; in [5], 2.16 µM; in assay [6], 1.76 µM; in assay [10], 1.43 µM. In addition, the values for the GI50 in assay [8] and in assay [9] were 1.85 µM and 1.94 µM, respectively. Also, the TGI in assay [1] turned out to be 8.32 µM; in assay [3], 4.69 µM; in assay [4], 2.3 µM; in assay [5] it was 4.99 µM; in assay [6] it was 3.42 µM; in assay [10] it was 2.83 µM. The TGI worked out at 3.76 µM in assay [8] and 4.57 µM in [9].

Turning to `CC1(C)C(c2ccccc2)C12CCC1(C2=O)C(c2ccccc2)C1(C)C` (centres undefined), the TGI was determined as 34.4 µM in assay [1]; 81.8 µM in assay [2]; 37.4 µM in [3]; 39 µM in assay [4]; 37 µM in [6]; 37.4 µM in assay [10]. Besides, the TGI was 51.8 µM in assay [7] and more than 100 µM in [9].

As for `O=S1CSCS1` (centres undefined), the TGI in assay [1], in assay [2], in [3], in [4], in assay [6] and in [10] was more than 100 µM throughout. Besides, the TGI in assay [8] and in assay [9] was more than 100 µM throughout.

On to `O=C(c1ccccc1)C(c1ccccc1)C1(O)C(=O)Nc2ccccc21` (centres undefined), for which the TGI in [1], in [2], in assay [3], in assay [4], in assay [5] and in assay [6] was more than 100 µM each time. Moreover, the TGI in assay [10], in [7] and in assay [9] was more than 100 µM each time.

For `COc1cc(=O)oc(/C=C/C=O)c1C`, the TGI in assay [1] is 32.2 µM; in assay [2], more than 100 µM; in assay [3], 83.9 µM; in assay [4] it was 39.6 µM; in assay [10], 35.4 µM; in assay [8] it was 38.2 µM. The same compound returned a TGI in assay [9] of 81.1 µM.

As for `COc1cc([N+](=O)[O-])c(S(=O)(=O)O)cc1NS(=O)(=O)c1ccc(C)cc1`, the TGI in assay [2], in [3], in assay [4], in assay [5], in assay [6] and in assay [10] was more than 100 µM throughout. In addition, the TGI in assay [7], in assay [8] and in assay [9] was more than 100 µM throughout.

Take `CC(C)(C)N/N=C(\Cc1occc(=O)c1O)C(=O)Nc1ccc([N+](=O)[O-])cc1[N+](=O)[O-]`: the TGI in assay [2], in assay [3], in assay [4], in [5], in assay [6] and in assay [10] was more than 100 µM each time. For the same compound, the TGI in [7], in [8] and in assay [9] was more than 100 µM throughout.

Take `CCNC(C)(C)C(SS)c1ccc(Br)cc1` (centres undefined): the TGI is more than 100 µM in assay [2]; 53 µM in assay [3]; more than 100 µM in [4]; more than 100 µM in [5]; more than 100 µM in [6]; 90.8 µM in assay [10]. Further, the TGI in assay [7], in assay [8] and in assay [9] was more than 100 µM each time.

Consider `O=C(CC(=O)c1ccc([N+](=O)[O-])cc1)C(=O)Nc1nccs1`, for which the TGI in [1], in assay [2], in assay [3], in [4], in assay [5] and in assay [6] was more than 100 µM each time. Further, the TGI in [7], in assay [8] and in [9] was more than 100 µM throughout.

As for `NC1=NC(c2ccc(Cl)cc2)N(c2ccc(S(=O)(=O)Nc3ncccn3)cc2)C(N)=N1` (centres undefined), the TGI in [2] is more than 100 µM; in [3], 1.08 µM; in [4] it was more than 100 µM; in [5], more than 100 µM; in assay [6], more than 100 µM; in assay [10], more than 100 µM. The TGI in assay [7], in [8] and in assay [9] was more than 100 µM throughout.

With `CN(C)c1ccc2c(c1)CN1C(=O)c3ccccc3C1=N2`, the GI50 in assay [2], in assay [3], in assay [4], in assay [5], in assay [6] and in assay [10] was more than 100 µM each time. Besides, the GI50 in [7], in assay [8] and in assay [9] was more than 100 µM in each case. Also, the TGI in [2], in assay [3], in assay [4], in assay [5], in assay [6] and in [10] was more than 100 µM each time. The TGI in assay [7], in assay [8] and in assay [9] was more than 100 µM in each case.

For the compound `O=C(CCN1CCOCC1)Nc1ccc(F)cc1F`, the TGI in assay [2], in assay [3], in [4], in assay [5], in [6] and in [10] was more than 100 µM each time. Further, the TGI in [7], in [8] and in assay [9] was more than 100 µM in each case.

As to `Cc1cc(=O)oc2c(CN3CCCCC3)c(O)ccc12`, the TGI in assay [1], in [2], in [3], in assay [4], in [5] and in assay [6] was more than 100 µM throughout. For the same compound, the TGI in [10], in assay [7] and in assay [9] was more than 100 µM in each case.

Regarding `[N-]=[N+]=Nc1ccc(CCN2CCN(c3cccc(C(F)(F)F)c3)CC2)cc1I`, the TGI in assay [2] is more than 100 µM; in assay [3], 45.2 µM; in [4] it was more than 100 µM; in assay [5] it was more than 100 µM; in [6], more than 100 µM; in [10], more than 100 µM. Further, the TGI in assay [7], in assay [8] and in assay [9] was more than 100 µM in each case.

In the case of `Cc1cc(N2CCN(C)CC2)nc(NCc2cc(Nc3ccnc4cc(Cl)ccc34)ccc2F)n1`, the GI50 is 1.79 µM in assay [1]; 1.86 µM in [3]; 1.88 µM in [4]; 1.95 µM in assay [6]; 2.11 µM in assay [10]; 2.21 µM in [7]. In addition, the results for the GI50 in assay [8] and in assay [9] were 3.2 µM and 3.13 µM, respectively. In addition, the TGI in assay [1] is 4.85 µM; in [3], 3.96 µM; in [4] it was 3.45 µM; in [6], 3.8 µM; in [10], 3.9 µM; in assay [7], 8.36 µM. In addition, the TGI in [8] is more than 100 µM; in assay [9], 9.68 µM.

Turning to `CC1(C)OC(=O)[C@@](C)([C@H](O)c2ccccc2)O1`, the TGI in [1], in assay [3], in assay [4], in assay [5], in assay [6] and in assay [10] was more than 100 µM each time. The TGI in assay [8] and in [9] was more than 100 µM throughout.

On to `COc1cc2c(c(OC)c1OC)C(=O)CC(c1cccc(NC(=O)c3ccc(Br)cc3)c1)O2` (centres undefined), for which the GI50 in assay [1] is 7.49 µM; in [2] it was more than 100 µM; in assay [3], 1.58 µM; in [4], 3.02 µM; in assay [5], 3.27 µM; in assay [6] it was 2.16 µM. Moreover, the GI50 in assay [10] was 2.96 µM; in assay [7], 2.31 µM; in [9], 2.9 µM. The TGI in assay [1] is more than 100 µM; in [2], more than 100 µM; in [3], 4.14 µM; in [4] it was more than 100 µM; in [5], more than 100 µM; in [6], 5.38 µM. The TGI in assay [10] is 9.04 µM; in assay [7] it was more than 100 µM; in assay [9], 9.19 µM.

Take `Cc1onc(-c2c(F)cccc2Cl)c1-c1ncc(-c2ccc(Cl)cc2)o1`: the GI50 in assay [1] is 5.95 µM; in assay [2], 74.4 µM; in assay [3] it was 4.02 µM; in [4] it was 5.15 µM; in assay [5], 3.18 µM; in assay [10] it was 3.25 µM. For the same compound, the GI50 in assay [7] was 2.89 µM; in assay [8], 5.59 µM; in assay [9], 4.69 µM. Also, the TGI in assay [1], in assay [2], in [3], in assay [4], in [5] and in assay [10] was more than 100 µM in each case. Further, the TGI in assay [7], in assay [8] and in [9] was more than 100 µM throughout.

`O=S(=O)(Nc1cc(Br)c(O)c2ccccc12)c1ccc(F)cc1`: the GI50 in assay [1] was 18.4 µM; in assay [3], 2.61 µM; in assay [4] it was 3.31 µM; in [5], 18.3 µM; in assay [6], 3.42 µM; in assay [10], 1.87 µM. Besides, the GI50 in assay [7] was 2.95 µM; in assay [8] it was 6.27 µM; in [9], 2.78 µM. In addition, the TGI was found to be 33.4 µM in assay [1]; 6.95 µM in assay [3]; 14.1 µM in [4]; 38.7 µM in assay [5]; 16.2 µM in assay [6]; 3.58 µM in assay [10]. For the same compound, the TGI in assay [7] came to 11.3 µM; in assay [8] it was 21.7 µM; in assay [9], 7.87 µM.

In the case of `COc1ccc(Cl)cc1Nc1nc(C(F)(F)F)ccc1C(=O)N/N=C/c1ccc([N+](=O)[O-])cc1`, the GI50 in assay [1] was 1.29 µM; in assay [2], 1.73 µM; in [3] it was 2.14 µM; in [4] it was 2.18 µM; in assay [5], 1.9 µM; in [10] it was 2.92 µM. The GI50 was 1.29 µM in assay [7], 1.79 µM in assay [8] and 2.77 µM in [9]. Further, the TGI in assay [1] was found to be 7.27 µM; in [2], 7.59 µM; in assay [3], 7.18 µM; in assay [4] it was 5.42 µM; in assay [5] it was 4.86 µM; in [10], 8.7 µM. In addition, the TGI in [7] was found to be 5.11 µM; in assay [8], 4.98 µM; in [9], 62.2 µM.

These data come from PubChem BioAssay (NCI).
